Measurements: paper doi:10.1101/2025.01.07.631748, “Strategic Modulation of Polarity and Viscosity Sensitivity of Bimane Molecular Rotor-Based Fluorophores for Imaging α-Synuclein” (bioRxiv, 2025)

Key:
α-synuclein (αS) fibrils [1] = biological target: T1, α-synuclein (αS) fibrils (Homo sapiens, UniProt P37840); assay: fluorescence turn-on binding titration with αS fibrils
T1 construct: gene SNCA

α-synuclein (αS) fibrils [2] = biological target: T1, α-synuclein (αS) fibrils; assay: fluorescence competition binding with 3c and 4a; fluorescence turn-on

Row | SMILES | Kd (α-synuclein (αS) fibrils [1]) | fluorescence competition binding with 3c and 4a; fluorescence turn-on (α-synuclein (αS) fibrils [2])
1 | Cc1c(C)n2c(/C=C/c3ccc(N4CCC4)cc3)c(C)c(=O)n2c1=O [3d, RBF 3d] | 3d and 3e, with cyclic amines, showed reduced affinity | 
2 | Cc1c(C)n2c(/C=C/c3ccc(N4CCOCC4)cc3)c(C)c(=O)n2c1=O [3e, RBF 3e] | 3d and 3e, with cyclic amines, showed reduced affinity | 
3 | Cc1ccc2c(c1)sc(-c1ccc(N(C)C)cc1)[n+]2C [ThT, Thioflavin-T] |  | both 3c and 4a competed with the promiscuous binder ThT, but that some ThT emission remained at saturating concentrations
